pIC50: −log10 of the molar value.
Legend:
[1] = target: Adenosine receptor A2a (Homo sapiens, UniProt P29274); experiment: Binding Affinities to Different Adenosine Receptors: The compounds at different concentrations were incubate with hA1 membrane (from PerkinElmer) and [3H]-8-Cyclopentyl-1,3-dipropylxanthine (DPCPX) for 50 min at 25° C., meanwhile 100 μL 0.5% PEI solution was added into […]-96 GF/B filter plate for 60 min at 4° C., then […]-96 GF/B filter plate was washed twice with 50 ml wash buffer, the membrane mix was transferred into […]-96 GF/B filter plate, and the filter plate was washed 4 times before incubated at 55° C. for 10 min. At last, […] ULTIMA GOLD was added into each well, and CPM was read by TopCount.The compounds at different concentrations were incubate with hA2a membrane (from PerkinElmer) and [3H]-CGS21680 for 90 min at 25° C., meanwhile 100 μL 0.5% PEI solution was added into […]-96 GF/B filter plate for 60 min at 4° C., then […]-96 GF/B filter plate was washed twice with 50 ml wash buffer, the membrane mix was transferred into […]-96 GF/B filter plate, and the filter plate was washed 4 times before incubated at 55° C. for 10 min. At last, […] ULTIMA GOLD was added into each well, and CPM was read by TopCount.The compounds at different concentrations were incubate with hA2b membrane (from PerkinElmer) and [3H]-DPCPX for 60 min at 27° C., and the binding reactions were stopped by rapid filtration through 0.5% BSA coated […]-96 GF/C plates using cell harvester. […]
[2] = target: T1, Adenosine receptor A1 (Homo sapiens, UniProt P30542); experiment: (§1) FLIPR and cAMP Inhibition Assay: hADORA1/CHO (hA1 expressing) cells (Genscript) were plated at 1×10^4 cells/well into 384-well polystyrene plates one day before starting the experiment. On the day of experiment, the supernatant was discard and replaced with 40 µL of dye (FLIPR calcium 5 Assay Kit) per well and the plates were incubated for 60 mins at 37° C. plus 5% CO2. Then testing compounds were added at different concentrations for FLIPR™ inhibition assay. After a 400 s incubation with compound, […] was added into the cells, and the signal was captured by FLIPR.hA2a/CHO, hA2b/CHO and mA2a/CHO (Genscript) were plated at 5×10^3 cells/well into 384-well polystyrene plates at the day of experiment. Compounds were pre-incubated with cells for 30 min at 37° C., 5% CO2. Then […] was added to the cells and incubated for 30 min at 37° C., 5% CO2. Detection reagent (CISBIO) was added and the plates were incubated for 60 min at room temperature. The signal was captured by Envision.
T1 sequence (P30542 whole entry): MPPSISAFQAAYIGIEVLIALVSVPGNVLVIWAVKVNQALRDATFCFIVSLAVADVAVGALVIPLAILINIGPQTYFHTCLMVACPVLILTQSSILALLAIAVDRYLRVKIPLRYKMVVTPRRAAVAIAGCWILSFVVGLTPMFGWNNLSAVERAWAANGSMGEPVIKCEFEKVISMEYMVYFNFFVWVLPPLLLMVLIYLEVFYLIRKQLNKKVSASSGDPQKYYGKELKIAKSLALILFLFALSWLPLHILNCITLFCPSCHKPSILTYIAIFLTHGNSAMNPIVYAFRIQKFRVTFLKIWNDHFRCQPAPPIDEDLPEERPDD

[3] = target: T2, Adenosine receptor A2b (Homo sapiens, UniProt P29275); experiment: as §1
T2 sequence (P29275 whole entry): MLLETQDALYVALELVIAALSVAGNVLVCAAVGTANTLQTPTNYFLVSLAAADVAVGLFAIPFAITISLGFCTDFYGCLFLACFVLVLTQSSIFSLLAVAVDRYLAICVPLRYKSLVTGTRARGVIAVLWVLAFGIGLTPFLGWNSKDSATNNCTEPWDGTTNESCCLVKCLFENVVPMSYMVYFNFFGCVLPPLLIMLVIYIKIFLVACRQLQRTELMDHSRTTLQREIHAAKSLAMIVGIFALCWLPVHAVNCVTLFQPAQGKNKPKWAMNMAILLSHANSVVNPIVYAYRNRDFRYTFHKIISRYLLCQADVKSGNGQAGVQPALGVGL

[4] = target: Adenosine receptor A2a (Mus musculus, UniProt Q60613); experiment: as §1
Adenosine receptor A2a (Mus musculus, UniProt Q60613), sequence (Q60613 whole entry): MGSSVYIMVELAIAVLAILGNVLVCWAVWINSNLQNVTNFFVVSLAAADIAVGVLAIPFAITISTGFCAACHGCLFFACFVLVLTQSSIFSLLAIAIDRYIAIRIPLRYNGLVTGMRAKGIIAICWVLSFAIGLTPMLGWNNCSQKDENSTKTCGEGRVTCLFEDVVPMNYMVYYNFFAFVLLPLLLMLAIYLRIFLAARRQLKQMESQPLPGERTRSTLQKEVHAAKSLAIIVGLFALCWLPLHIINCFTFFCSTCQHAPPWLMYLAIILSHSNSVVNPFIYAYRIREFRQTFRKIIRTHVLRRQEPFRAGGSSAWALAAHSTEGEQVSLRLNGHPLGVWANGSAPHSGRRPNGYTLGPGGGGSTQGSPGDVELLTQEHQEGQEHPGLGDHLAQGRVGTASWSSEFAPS

Adenosine receptor A2a (Homo sapiens, UniProt P29274), sequence (P29274 whole entry): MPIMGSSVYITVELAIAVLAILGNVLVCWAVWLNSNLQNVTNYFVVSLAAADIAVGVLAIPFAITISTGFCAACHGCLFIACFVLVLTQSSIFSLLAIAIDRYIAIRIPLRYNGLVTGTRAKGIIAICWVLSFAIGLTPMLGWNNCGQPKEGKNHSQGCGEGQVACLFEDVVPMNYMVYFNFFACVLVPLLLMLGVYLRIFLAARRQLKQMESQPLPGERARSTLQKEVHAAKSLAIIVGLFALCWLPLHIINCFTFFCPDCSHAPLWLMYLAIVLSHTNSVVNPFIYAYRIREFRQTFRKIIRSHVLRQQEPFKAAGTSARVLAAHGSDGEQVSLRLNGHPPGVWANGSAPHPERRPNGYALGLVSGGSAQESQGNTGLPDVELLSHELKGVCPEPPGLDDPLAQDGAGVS

SMILES	pIC50 [1]	pIC50 [2]	pIC50 [3]	pIC50 [4]
Nc1nc(-n2ccnn2)c(-c2ccc3nccn3c2)c2nc(Cc3ncccc3F)nn12	6.99	6.11	5.95	6.77
Cc1cnc2ccc(-c3c(N4CCOCC4)nc(N)n4nc(Cc5c(F)cccc5F)nc34)cn12	9.70	–	7.35	8.54

— ChEMBL document CHEMBL5728138, “Triazolo-pyrimidine compounds and uses thereof” (2020)
